Results reported in US10266564B2, “Cationic lipid cordiarimide hybrid compounds and a process for preparation thereof” (COUNCIL OF SCIENTIFIC & INDUSTRIAL RESEARCH, priority 2014, dated 2019).
“Also recorded” adds a separate entry of the source.

Columns and labels:
[1] = tested on: PC-3 (human prostate cancer cells); experiment: MTT assay for cell viability, PC-3; type: cell-based; settings: Homo sapiens, 48 h
Experimental: (§1) The human cancer cell lines e.g. HepG2 (hepatocellular carcinoma, ATCC® HB-8065™), PC-3 (human prostate cancer cells, ATCC® CRL-1435™), MCF-7 (breast adenocarcinoma, ATCC® […]), and mouse embryo fibroblasts (NIH/3T3, ATCC® CRL-1658™), used in the present study were obtained from the ATCC (American Type Culture Collection, USA and maintained in RPMI 1640 (Roswell Park Memorial Institute, Merck) with 10% FBS (Merck), supplemented with 1% antibiotic and antimycotic solution (Gibco, USA) at 37° C. in a humidified incubator with 5% CO2. All stock solutions of the compounds were prepared in cell culture grade DMSO (dimethyl sulfoxide) and stored at −20° C. Compounds were diluted in culture media prior to use in experiments. Annexin V-FITC apoptosis detection kits were purchased from Calbiochem. MTT dye was procured from Sigma-Aldrich. All the flow cytometry experiments were performed using a FACScan (Becton Dickinson, Mountain View, Calif.) flow cytometer, equipped with a single 488 nm argon laser.
(§2) Cell viability was assessed by MTT assay, which is based on the reduction of MTT by mitochondrial dehydrogenases of viable cells to form a purple formazan product. Briefly, cells (5-6×10^3/well) were plated in 96 well plates. After incubating overnight, the cells were treated with […] different concentrations (100, 50, 20, 10, 5, 2.5, 1.25 μM) in triplicates with the cationic lipidated cordiarimide and intermediates for 48 h. Subsequently, 10 μL of MTT (10 mg/mL) was added to each well and incubated for 3 h. The MTT formazan formed by viable cells was dissolved in 100 μL of DMSO and shaken for 10 min. The absorbance was measured on an ELISA reader. Each test was repeated at least three times. The concentration of the compound which gives the 50% growth inhibition value corresponding to IC50, was calculated using GraphPad prism 5 software. In the present invention we have screened 26 lipidated cordiarimides and the results are described in table 1.

[2] = tested on: HepG2 (hepatocellular carcinoma); experiment: MTT assay for cell viability, HepG2; type: cell-based, human; settings: Homo sapiens, HepG2, 48 h
Experimental: as §1, §2

[3] = tested on: HepG2, NH/3T3, PC-3, MCF-7 cell lines; experiment: MTT assay, summary over the cell line panel; type: cell-based; settings: across tested cell lines
Experimental: as §1, §2

[4] = tested on: mouse embryo fibroblasts (NIH/3T3); experiment: MTT assay for cell viability, NIH/3T3; type: cell-based; settings: NIH3T3, 48 h
Experimental: as §1, §2

[5] = tested on: MCF-7 (breast adenocarcinoma); experiment: MTT assay for cell viability, MCF-7; type: cell-based, human; settings: Homo sapiens, MCF7, 48 h
Experimental: as §1, §2

A549 = settings: according to Kittakoop et al.; cited from earlier work
MOLT-3 = settings: according to Kittakoop et al.; cited from earlier work
HuCCA-1 = settings: according to Kittakoop et al.; cited from earlier work
human ligase I = human ligase I (Homo sapiens, UniProt P18858); experiment: Ligation assay, DNA ligase I; type: biochemical; settings: screening, FIG. 4 and FIG. 7
Text: The ligation assay was done strictly following the assay protocol described in Xi Chen et. al, Cancer Res 2008; 68(9):3169-3177. The DNA molecules 52 mer (5′-3′), 28-mer (5′-3′) and 34-mer (5′-3′) were used to construct a double stranded nicked substrate for the ligase enzyme (FIG. 4). The 34-mer oligo was labelled with 32P-AMP to form a substrate for ligase and to form a ligase-AMP intermediate. During ligation, the ligase would transfer the AMP to the nick forming a phosphodiester bond and seal the nick. The ligated DNA molecule would be larger in size and run higher up on a 7% Urea-containing denaturing acrylamide gel. If an inhibitor is added to the reaction mixture prior to the addition of ligase, this would lead to an inhibition of ligation and a corresponding loss of labelled ligated product in the gel. We would then be able to calculate the percentage of inhibition of ligation by estimating the amount of ligated product in the lane with no inhibitor and comparing it with the lanes containing different inhibitor molecules or with the same inhibitor molecule at different concentrations.

HepG2 = settings: according to Kittakoop et al.; cited from earlier work
HepG2 cells [6] = experiment: Cell cycle analysis, PI staining by flow cytometry; type: cell-based, human; settings: HepG2, 24 h, 5, 10, and 20 mM as printed
Experimental: For cell cycle distribution studies after treatment with different molar concentrations of 8i and 8k, HepG2 cells were fixed overnight in 70% ethanol, rehydrated in PBS with ribonuclease A (100 μg/ml) and Triton-X (1%) for 30 min at room temperature then PI (at 50 μg/ml) was added and incubated in the dark for 30 min and analyzed with a flow cytometer. Experiments were repeated two times independently.

HepG2 cells [7] = experiment: Apoptosis, annexin V/PI staining by flow cytometry; type: cell-based, human; settings: HepG2, 24 h
Experimental: Quantitation of apoptotic cells by annexin V staining was carried out according to the manufacturer's instructions. Briefly, cells (5×10^5 cells/well) were seeded in 6 well plates and treated with 5 μM of 8h-8k for 24 h. After incubation, cells were washed with PBS and stained with 1.25 μL of annexin V-FITC and 10 μL of media binding reagent and incubated for 20 min. After that 10 μL of PI was added and samples were analyzed using a flow cytometer. Annexin V-FITC was analyzed using excitation and emission settings of 488 nm and 535 nm (FL-1 channel); PI, 488 nm and 610 nm (FL-2 channel). Debris and clumps were gated out using forward and orthogonal light scatter. Each experiment was repeated two times independently. Results are illustrated in FIG. 1 and the percentage of Annexin-V/PI positive cells increased gradually from 20 to 70% after 24 h of treatment (FIG. 1).

caspase-3 in HepG2 cells = experiment: Caspase-3 colorimetric activation assay; type: cell-based, human; settings: HepG2, 5 and 10 μM, 24 h
Experimental: The activity of caspase-3 was determined using a caspase-3 colorimetric assay kit (Sigma Aldrich) according to the manufacturer's protocol. Briefly, HepG2 cells (1×10^6 cells/well) were treated with 5 and 10 μM of 8i and 8k for 24 h. The cells were harvested and lysed by addition of lysis buffer. Cell lysates were mixed with colorimetric substrate (Ac-DEVD-pNA) and incubated at 37° C. in the dark for 4 h. The absorbance was measured at 405 nm in an ELISA reader. Caspase-3 activity was expressed as the change of the activity compared to the control (FIG. 3).

human ligase I, sequence (P18858 whole entry): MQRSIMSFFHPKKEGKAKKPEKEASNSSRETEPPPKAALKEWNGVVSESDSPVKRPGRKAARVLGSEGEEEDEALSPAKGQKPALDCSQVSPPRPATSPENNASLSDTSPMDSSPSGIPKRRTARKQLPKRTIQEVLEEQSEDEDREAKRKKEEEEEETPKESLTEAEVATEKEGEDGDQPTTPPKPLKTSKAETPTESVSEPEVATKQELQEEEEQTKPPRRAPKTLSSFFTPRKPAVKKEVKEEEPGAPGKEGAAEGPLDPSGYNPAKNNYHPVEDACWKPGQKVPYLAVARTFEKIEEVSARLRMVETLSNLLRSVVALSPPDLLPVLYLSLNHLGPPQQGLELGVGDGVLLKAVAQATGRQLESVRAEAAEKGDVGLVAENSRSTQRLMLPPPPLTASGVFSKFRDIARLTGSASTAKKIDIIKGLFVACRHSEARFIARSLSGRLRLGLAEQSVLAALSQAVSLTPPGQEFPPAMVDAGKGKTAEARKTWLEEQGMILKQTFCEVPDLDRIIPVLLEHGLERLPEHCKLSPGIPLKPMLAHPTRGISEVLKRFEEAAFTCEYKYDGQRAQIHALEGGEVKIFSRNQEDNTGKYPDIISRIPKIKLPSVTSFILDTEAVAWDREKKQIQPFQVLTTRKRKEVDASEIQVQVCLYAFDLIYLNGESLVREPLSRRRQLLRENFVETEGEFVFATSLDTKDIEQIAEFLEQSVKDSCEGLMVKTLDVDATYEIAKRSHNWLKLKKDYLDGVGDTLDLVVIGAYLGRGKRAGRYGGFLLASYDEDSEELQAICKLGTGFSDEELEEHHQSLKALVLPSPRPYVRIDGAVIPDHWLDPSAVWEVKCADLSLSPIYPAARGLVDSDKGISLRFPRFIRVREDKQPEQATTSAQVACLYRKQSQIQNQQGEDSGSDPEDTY

IC50 [1] [µM] | IC50 [2] [µM] | IC50 [5] [µM] | DNA ligase I / ligation inhibition (in words) (human ligase I) | SMILES | antiproliferative / anticancer activity (in words) [3] | IC50 [4] [µM] | cytotoxicity toward A549 (A549) | IC50 (MOLT-3) [µM] | cytotoxicity toward HuCCA-1 (HuCCA-1) | cytotoxicity toward HepG2 (HepG2) | effect on cell cycle progression (HepG2 cells [6]) | apoptosis induction (in words) (HepG2 cells [7]) | caspase-3 activation (caspase-3 in HepG2 cells)
> 20 | 3.43 | 6.37 |  | CCCCCCCC[N+](C)(CCCCCCCC)CC(=O)NC1CCC(=O)N(CC(=O)c2ccccc2)C1=O (stereo not drawn) [Compound 8g, {[2,6-Dioxo-1-(2-oxo-2-phenyl-ethyl)-piperidin-3-ylcarbamoyl]-methyl}-Methyl-dioctyl-ammonium iodide] | very good anticancer activity without selectivity | 5.48 |  |  |  |  |  |  | 
 |  |  | did not show any ligation inhibition | CC(=O)NC1CCC(=O)N(CC(=O)c2ccccc2)C1=O (stereo not drawn) [Cordiarimide A] |  |  | inactive | 145 | inactive | inactive |  |  | 
4.23 | 3.07 | 5.21 |  | CCCCCCCCCC[N+](C)(CCCCCCCCCC)CC(=O)NC1CCC(=O)N(CC(=O)c2ccccc2)C1=O (stereo not drawn) [Compound 8i, Bis-decyl-{[2,6-dioxo-1-(2-oxo-2-phenyl-ethyl)-piperidin-3-ylcarbamoyl]-methyl}-methyl-ammonium iodide] | very good anticancer activity without selectivity | 2.13 |  |  |  |  | did not altered cell cycle progression; also recorded: did not show any impact on cell cycle progression | induced significant amount of apoptosis | activated the caspase-3 in HepG2 cells dose dependently; also recorded: activated the casepase-3 in HepG2 cells dose dependently
